The first experiment can be described thus: Inhibition of [3H]DTG binding to Sigma opioid receptor.
Turning to `CCCc1ccc(CC(C)NCCCc2ccccc2)cc1` (configuration not stated), the affinity, expressed as Ki, was 6.2 nM.
Still for that read-out and setting: next, `c1ccc(CCCNC2Cc3ccccc3C2)cc1`: 27 nM; `c1ccc(CCCNC2CCCc3ccccc3C2)cc1` (configuration not stated): 83 nM.
For the compound `CC(Cc1cccc(C(F)(F)F)c1)NCCCc1ccccc1` (configuration not stated), the affinity, expressed as Ki, was 3.9 nM.
The same measure, in the same setting: next, `CC(Cc1cccc(Br)c1)NCCCc1ccccc1` (configuration not stated): 6 nM.

The nature of another experiment: In vitro binding affinity at PCP binding site of sigma-opioid receptors using (+)-[3H]-MK-801 as radioligand.
With `COc1ccc(CC(C)NCCCc2ccccc2)cc1` (configuration not stated), the IC50 – broadly, the point on the concentration scale where inhibition reaches its midpoint – is more than 10000 nM.
The same measure, in the same setting: next, `CC(Cc1ccc(I)cc1)NCCCc1ccccc1` (configuration not stated): more than 10000 nM.

The values are drawn from BindingDB's records for doi:10.1021/jm00110a015 (Virginia Commonwealth University, 1991).
